# Earlier results, collected in publication PMC4198332 (Chembiochem : a European journal of chemical biology, 2014).
# Legend:
# [1] = tested on: human red blood cells (hRBCs)
# [2] = tested on: Methicillin-resistant S. epidermidis (MRSE) (RP62A); details: included for comparison
# [3] = tested on: Methicillin-resistant S. aureus (MRSA) (ATCC 33591); details: included for comparison
# [4] = tested on: Vancomycin-resistant E. faecalis (ATCC 700802); details: included for comparison
# [5] = tested on: E. coli (ATCC 25922); details: included for comparison
# [6] = tested on: P. aeruginosa (ATCC 27853); details: included for comparison
substance,measurement,setting,value
Pexiganan,Hemolysis HC50,[1],--/120 μg/mL
same,MIC MRSE (+),[2],8 µg/mL
same,MIC MRSA (+),[3],16 µg/mL
same,MIC E. faecalis (+),[4],32 µg/mL
same,MIC E. coli (−),[5],8 µg/mL
same,MIC P. Aeruginosa (−),[6],16 µg/mL
